Reference: ChEMBL document CHEMBL3044569, “Mini-plot field experiments using seed dressings to control slug damage to oilseed rape” (Crop Prot, 2006)
The source made the active and inactive calls. No cut-off for these calls is given here.

What was measured:
Deroceras reticulatum [1] = experiment: Pesticidal activity against Deroceras reticulatum infected oilseed rape assessed as protection against slug damage studied in spring applied as pellet at 8 kg product/ha after 1 to 4 weeks relative to untreated control; assay type: functional, organism-based
Deroceras reticulatum [2] = experiment: Pesticidal activity against Deroceras reticulatum infected oilseed rape assessed as protection against slug damage studied in autumn applied as pellet at 8 kg product/ha after 1 to 4 weeks relative to untreated control; assay type: functional, organism-based
Brassica napus [3] = experiment: Phytotoxicity in Brassica napus (oilseed rape) at 60 g a.i/kg applied during seed dressing after 4 weeks studied in spring (reference value: 91 +/- 2.8 %); assay type: organism-based; settings: in vivo, other, 672 h
Deroceras reticulatum [4] = experiment: Pesticidal activity against Deroceras reticulatum infected oilseed rape assessed as protection against slug damage studied in autumn applied during seed dressing at 58 g a.i/kg seed after 1 to 4 weeks relative to untreated control; assay type: functional, organism-based
Brassica napus [5] = experiment: Phytotoxicity in Brassica napus (oilseed rape) at 58 g a.i/kg applied during seed dressing after 4 weeks studied in autumn (reference value: 89 +/- 2.9 %); assay type: organism-based; settings: in vivo, other, 672 h
Deroceras reticulatum [6] = experiment: Pesticidal activity against Deroceras reticulatum infected oilseed rape assessed as protection against slug damage studied in spring applied during seed dressing at 60 g a.i/kg seed after 2 to 4 weeks relative to untreated control; assay type: functional, organism-based
Deroceras reticulatum [7] = experiment: Pesticidal activity against Deroceras reticulatum infected oilseed rape assessed as protection against slug damage studied in spring applied during seed dressing at 20 g a.i/kg seed after 2 to 4 weeks relative to untreated control; assay type: functional, organism-based
Brassica napus [8] = experiment: Phytotoxicity in Brassica napus (oilseed rape) at 18 g a.i/kg applied during seed dressing after 4 weeks studied in autumn (reference value: 89 +/- 2.9 %); assay type: organism-based; settings: in vivo, other, 672 h
Brassica napus [9] = experiment: Phytotoxicity in Brassica napus (oilseed rape) at 20 g a.i/kg applied during seed dressing after 4 weeks studied in spring (reference value: 91 +/- 2.8 %); assay type: organism-based; settings: in vivo, other, 672 h
Deroceras reticulatum [10] = experiment: Pesticidal activity against Deroceras reticulatum infected oilseed rape assessed as protection against slug damage studied in autumn applied during seed dressing at 18 g a.i/kg seed after 1 to 4 weeks relative to untreated control; assay type: functional, organism-based

For `CC1OC(C)OC(C)OC(C)O1` (stereo not given) [METALDEHYDE], the Activity (Deroceras reticulatum [1]) was “Active”, the Activity (Deroceras reticulatum [2]) was “Active” and the Activity (Brassica napus [3]) was 90.3%. The Activity (Deroceras reticulatum [4]) was “Active”, the Activity (Brassica napus [5]) was 77% and the Activity (Deroceras reticulatum [6]) was “Active”.
`CNC(=O)Oc1cc(C)c(SC)c(C)c1` [METHIOCARB] was tested, and the Activity (Deroceras reticulatum [7]) was “Active”, the Activity (Brassica napus [8]) was 86.5% and the Activity (Brassica napus [9]) was 87.5%. The Activity (Deroceras reticulatum [10]) was “Active”.
